Reference: patent publication US20120220603A1, “SUBSTITUTED HETEROCYCLIC DERIVATIVES FOR THE TREATMENT OF PAIN AND EPILEPSY” (ZALICUS PHARMACEUTICALS LTD., priority 2009, published 2012)

Tests used:
[1] = test system: Rat SNL tactile allodynia; assay: L5/L6 spinal nerve ligation (SNL) Chung pain model, tactile allodynia (von Frey); format: in vivo
From the text: The Spinal Nerve Ligation is an animal model representing peripheral nerve injury generating a neuropathic pain syndrome. In this model experimental animals develop the clinical symptoms of tactile allodynia and hyperalgesia. L5/L6 Spinal nerve ligation (SNL) injury was induced using the procedure of Kim and Chung (Kim et al., Pain 50:355-363 (1992)) in male Sprague-Dawley rats (Harlan; Indianapolis, Ind.) weighing 200 to 250 grams.
Anaesthesia was induced with 2% isofluorane in O2 at 2 L/min and maintained with 0.5% isofluorane in O2. Rats were then shaved and aseptically prepared for surgeries. A 2 cm paraspinal incision was made at the level of L4-S2. L4/L5 was exposed by removing the transverse process above the nerves with a small rongeur. The L5 spinal nerve is the larger of the two visible nerves below the transverse process and lies closest to the spine. The L6 spinal nerve is located beneath the corner of the slope bone. A home-made glass Chung rod was used to hook L5 or L6 and a pre-made slip knot of 4.0 silk suture was placed on the tip of the rod just above the nerve and pulled underneath to allow for the tight ligation. The L5 and L6 spinal nerves were tightly ligated distal to the dorsal root ganglion. The incision was closed, and the animals were allowed to recover for 5 days.
Sham control rats underwent the same operation and handling as the experimental animals, but without SNL.
Prior to initiating drug delivery, baseline behavioural testing data is obtained. At selected times after infusion of the Test or Control Article behavioural data can then be collected again.
The assessment of tactile allodynia consisted of measuring the withdrawal threshold of the paw ipsilateral to the site of nerve injury in response to probing with a series of calibrated von Frey filaments (innocuous stimuli). Animals were acclimated to the suspended wire-mesh cages for 30 min before testing. Each von Frey filament was applied perpendicularly to the plantar surface of the ligated paw of rats for 5 sec. A positive response was indicated by a sharp withdrawal of the paw. For rats, the first testing filament is 4.31. Measurements were taken before and after administration of test articles. […] The protocol was repeated until three changes in behaviour were determined (“up and down” method) (Chaplan et al., J. Neurosci. Methods 53:55-63 (1994)). The 50% paw withdrawal threshold was determined as (10^[Xf+kδ])/10,000, where Xf=the value of the last von Frey filament employed, k=Dixon value for the positive/negative pattern, and S=the logarithmic difference between stimuli. The cut-off values for rats were no less than 0.2 g and no higher than 15 g (5.18 filament); for mice no less than 0.03 g and no higher than 2.34 g (4.56 filament). A significant drop of the paw withdrawal threshold compared to the pre-treatment baseline is considered tactile allodynia. […]

[2] = Rat Early Pharmacokinetic (EPK) study; format: in vivo; conditions: PO, 3 mg/kg, formulation PG (propylene glycol); for Tmax: male, Sprague-Dawley, blood
Procedure: Male Sprague-Dawley rats were dosed via oral (PO) gavage in the detailed formulation. Blood samples were collected from the animals at 6 timepoints out to 4 hours post-dose. Pharmacokinetic analysis was performed on the LC-MS/MS measured concentrations for each timepoint of each compound.

[3] = test system: Lamina I/II spinal cord neurons; assay: Lamina assay: current-clamp recordings on lamina I/II spinal cord neurons; format: cell-based, rat; conditions: Lamina I and II; for % Spike Change (Mean; % change from control): tonic firing neurons, current-clamp
From the text: Male Wistar rats (P6 to P9 for voltage-clamp and P15 to P18 for current-clamp recordings) were anaesthetized through intraperitoneal injection of Inactin (Sigma). The spinal cord was then rapidly dissected out and placed in an ice-cold solution protective sucrose solution containing (in mM): 50 sucrose, 92 NaCl, 15 D-Glucose, 26 NaHCO3, 5 KCl, 1.25 NaH2PO4, 0.5 CaCl2, 7 MgSO4, 1 kynurenic acid, and bubbled with 5% CO2/95% O2. The meninges, dura, and dorsal and ventral roots were then removed from the lumbar region of the spinal cord under a dissecting microscope. The “cleaned” lumbar region of the spinal cord was glued to the vibratome stage and immediately immersed in ice cold, bubbled, sucrose solution. For current-clamp recordings, 300 to 350 μm parasagittal slices were cut to preserve the dendritic arbour of lamina I neurons, while 350 to 400 μm transverse slices were prepared for voltage-clamped […] channel recordings. Slices were allowed to recover for 1 hour at 35° C. in Ringer solution containing (in mM): 125 NaCl, 20 D-Glucose, 26 NaHCO3, 3 KCl, 1.25 NaH2PO4, 2 CaCl2, 1 MgCl2, 1 kynurenic acid, 0.1 picrotoxin, bubbled with 5% CO2/95% O2. The slice recovery chamber was then returned to room temperature (20 to 22° C.) and all recordings were performed at this temperature.
Neurons were visualized using IR-DIC optics (Zeiss Axioskop 2 FS plus, Gottingen, Germany), and neurons from lamina I and the outer layer of lamina II were selected based on their location relative to the substantia gelatinosa layer. Neurons were patch-clamped using borosilicate glass patch pipettes with resistances of 3 to 6 MΩ. Current-clamp recordings of lamina I/II neurons in the intact slice, the external recording solution was the above Ringer solution, while the internal patch pipette solution contained (in mM): 140 KGluconate, 4 NaCl, 10 HEPES, 1 EGTA, 0.5 MgCl2, 4 MgATP, 0.5 Na2GTP, adjusted to pH 7.2 with 5 M KOH and to 290 mOsm with D-Mannitol (if necessary). Only tonic firing neurons were selected for current-clamp experiments, while phasic, delayed onset and single spike neurons were discarded (22). Recordings were digitized at 50 kHz and low-pass filtered at 2.4 kHz.

mice on rotarod = assay: Mouse rotarod assay (minimal muscular or neurological impairment); format: in vivo
Procedure: To assess a compound's undesirable side effects (toxicity), animals were monitored for overt signs of impaired neurological or muscular function. In mice, the rotarod procedure (Dunham and Miya, J. Am. Pharmacol. Assoc. 46:208-209 (1957)) is used to disclose minimal muscular or neurological impairment (MMI). When a mouse is placed on a rod that rotates at a speed of 6 rpm, the animal can maintain its equilibrium for long periods of time. The animal is considered toxic if it falls off this rotating rod three times during a 1-min period.

[4] = test system: seizures induced by 6 Hz corneal stimulation in CF1 mice; assay: 6 Hz psychomotor seizure model of partial epilepsy; format: in vivo, mouse; design: Epilepsy 6 Hz (% protected): concentration or dose not given beside the values; conditions: 32 mA; for ED50: Mus musculus
Procedure: Compounds were evaluated for the protection against seizures induced by a 6 Hz, 0.2 ms rectangular pulse width of 3 s duration, at a stimulus intensity of 32 mA (CC97) applied to the cornea of male CF1 mice (20-30 g) according to procedures described by Barton et al, “Pharmacological Characterization of the 6 Hz Psychomotor Seizure Model of Partial Epilepsy,” Epilepsy Res. 47(3):217-27 (2001). Seizures are characterised by the expression of one or more of the following behaviours: stun, forelimb clonus, twitching of the vibrissae and Straub-tail immediately following electrical stimulation.

## O=C(CN1CCNCC1=O)Nc1cc(C(F)(F)F)cc(C(F)(F)F)c1 [Compound 1, N-(3,5-bis(trifluoromethyl)phenyl)-2-(2-oxopiperazin-1-yl)acetamide]
[1]; 1 hour
  Rat SNL Tactile Allodynia (% Antiallodynia): 52%
[1]; 2 hours
  Rat SNL Tactile Allodynia (% Antiallodynia): 55%
[1]; 4 hours
  Rat SNL Tactile Allodynia (% Antiallodynia): 37%
[2]
  Dose Normalized AUC: 1,118 nM*h
  Dose Normalized Cmax: 438 nM
  Tmax: 15 min
[3]
  % Spike Change (Mean; % change from control): −47.3%
[3]; Rattus norvegicus, Neuron
  EC50: 482 nM
Mice on rotarod; 0.25 hr
  % Impaired: 0%
Mice on rotarod; 0.5 hr
  % Impaired: 0%
Mice on rotarod; 1 hr
  % Impaired: 0%
Mice on rotarod; 2 hr
  % Impaired: 0%
Mice on rotarod; 4 hr
  % Impaired: 0%
[4]; 0.25 hr
  Epilepsy 6 Hz (% protected): 75%
[4]; 0.5 hr
  Epilepsy 6 Hz (% protected): 100%
[4]; 1 hr
  Epilepsy 6 Hz (% protected): 75%
[4]
  ED50: 128 mg/kg

## O=C1CN(CC(=O)Nc2cc(C(F)(F)F)cc(C(F)(F)F)c2)CCN1 [Compound 9, N-(3,5-bis(trifluoromethyl)phenyl)-2-(3-oxopiperazin-1-yl)acetamide]
[1]; 1 hour
  Rat SNL Tactile Allodynia (% Antiallodynia): 36%
[1]; at 60 minutes compared to baseline and post-SNL
  Anti-allodynia in rat SNL tactile allodynia (in words): significant anti-allodynia
[2]
  Dose Normalized AUC: 1,120 nM*h
  Dose Normalized Cmax: 484 nM
  Tmax: 84 min
[3]
  % Spike Change (Mean; % change from control): −35.5%
Mice on rotarod; 0.25 hr
  % Impaired: 0%
Mice on rotarod; 0.5 hr
  % Impaired: 0%
Mice on rotarod; 1 hr
  % Impaired: 0%
Mice on rotarod; 2 hr
  % Impaired: 0%
Mice on rotarod; 4 hr
  % Impaired: 0%
[4]; 0.25 hr
  Epilepsy 6 Hz (% protected): 75%
[4]; 0.5 hr
  Epilepsy 6 Hz (% protected): 25%
[4]; 1 hr
  Epilepsy 6 Hz (% protected): 88%
[4]; 2 hr
  Epilepsy 6 Hz (% protected): 75%
[4]; 4 hr
  Epilepsy 6 Hz (% protected): 0%
[4]
  ED50: 90 mg/kg
